Measured values: patent US20260041649A1, “ANTI-INFLAMMATORY AGENT” (WATANABE OYSTER LABORATORY, CO., LTD., priority 2023, published 2026)

Test system: mouse macrophage RAW264.7 cells
Assay: Cell death of subconfluent RAW264.7 cells (cell count)
Assay type: cell-based
Settings: for death in RAW264.7 cells: DHMBA 1, 10, 100 or 1000 μM, subconfluent cells
Description: FIG. 4 is an explanatory diagram describing that the marine factor 3,5-dihydroxy-4-methoxy benzyl alcohol (DHMBA) stimulates cell death in mouse macrophage RAW264.7 cells. RAW264.7 cells (1×10^5 cells/ml/well in a 24-well plate) were cultured in DMEM containing 10% FBS, 1% P/S, and 1% fungizone for 3 days until they reached subconfluence. The cells were cultured for another 24 hours (FIG. 4A) or 48 hours (FIG. 4B) in the control group (1% ethanol; 0 μM DHMBA as final concentration) and in the DHMBA-treated group (0.1, 1, 10, 100, or 1000 μM). In FIG. 4C, subconfluent RAW264.7 cells were cultured for another 48 hours with a caspase-3 inhibitor (10 μM) in the control group (1% ethanol; 0 μM DHMBA as final concentration) and the DHMBA-treated group (1 or 10 μM). After the culture, the number of cells attached to the dish was counted. Data are presented as the mean±SD from a total of 8 wells in 2 plates using different cell preparations. In FIG. 4D, to measure the expression level of caspase-3 or cleaved caspase-3, […] (1×10^6 cells/10 ml medium in a 100 mm dish) were cultured for 3 days in a DMEM culture medium in the control group (1% ethanol; 0 μM DHMBA as final concentration) and the DHMBA-treated group (10 μM). After the culture, cell lysates were obtained for Western blotting assay. In FIG. 4E, band intensities are shown as fold increase over the control. Data are presented as the mean±SD of values obtained from 4 dishes using different cell preparations. *: Significant difference (p<0.001) between the control group and the DHMBA-treated group. Statistical analysis was performed using 1-way ANOVA with Tukey-Kramer post-test.
RAW264.7 cells (1×10^5/ml/well in a 24-well plate) were cultured for 3 days in a DMEM culture medium containing 10% FBS, 1% P/S, and 1% fungizone using a 24-well plate. […]
The number of viable cells was counted under a microscope (Olympus MTV-3) using a hemocytometer (Sigma-Aldrich) and a cell counter (H-102P, Line Seiki Co., Ltd., Tokyo, Japan).

Compound: COc1c(O)cc(CO)cc1O [DHMBA, 3,5-dihydroxy-4-methoxybenzyl alcohol]
- death in RAW264.7 cells (24 hours): promoted
- death in RAW264.7 cells (48 hours): promoted
- stimulatory effect on death of RAW264.7 cells in presence of caspase-3 inhibitor (DHMBA 1 or 10 μM, caspase-3 inhibitor 10 μM, 48 hours): blocked
